According to ChEMBL document CHEMBL5537135, “Novel antimicrobial peptides modified with fluorinated sulfono-γ-AA having high stability and targeting multidrug-resistant bacteria infections” (Eur J Med Chem, 2024):
Converted amounts (≈) assume the structure as drawn. The source made the active and inactive calls. The calls are words filed in the database; no cut-off is given here. Numbered stars: 1 amine (or outer) side, 2 acyl side, 3 side chain; on linkers, the order of the positions; unused ones are H or OH. Square brackets hold non-standard residues; d marks the D form. Peptide text beside a SMILES is read from it. * marks the point of attachment. X4 = N[C@@H](Cc1ccccc1)CN(CC(=O)[*:2])[*:1]; X7 = O=S(=O)(c1cc(C(F)(F)F)cc(C(F)(F)F)c1)*; X2 = CC(C)C[C@H](N)CN(CC(=O)[*:2])[*:1]; X1 = O=S(=O)(c1ccc(C(F)(F)F)cc1)*

Columns and labels:
[1] = tested on: Pseudomonas aeruginosa; experiment: Antimicrobial activity against Pseudomonas aeruginosa ATCC 27853 in presence of mouse serum; assay type: functional, organism-based
[2] = tested on: Staphylococcus aureus; experiment: Antimicrobial activity against Staphylococcus aureus ATCC 25923 in presence of human serum; assay type: functional, organism-based
[3] = tested on: Staphylococcus epidermidis; experiment: Antimicrobial activity against Staphylococcus epidermidis ATCC 12228 assessed as inhibition of visible bacterial growth incubated for 18 hrs by broth-dilution method; assay type: functional
[4] = tested on: Pseudomonas aeruginosa; experiment: Antimicrobial activity against multidrug-resistant Pseudomonas aeruginosa 061 assessed as inhibition of visible bacterial growth incubated for 18 hrs by broth-dilution method; assay type: functional
[5] = tested on: Pseudomonas aeruginosa; experiment: Antimicrobial activity against multidrug-resistant Pseudomonas aeruginosa 085 assessed as inhibition of visible bacterial growth incubated for 18 hrs by broth-dilution method; assay type: functional
[6] = tested on: Pseudomonas aeruginosa; experiment: Antimicrobial activity against multidrug-resistant Pseudomonas aeruginosa 157 assessed as inhibition of visible bacterial growth incubated for 18 hrs by broth-dilution method; assay type: functional
[7] = tested on: Staphylococcus aureus; experiment: Antimicrobial activity against methicillin-resistant Staphylococcus aureus 10 assessed as inhibition of visible bacterial growth incubated for 18 hrs by broth-dilution method; assay type: functional
[8] = tested on: Staphylococcus aureus; experiment: Antimicrobial activity against methicillin-resistant Staphylococcus aureus 5 assessed as inhibition of visible bacterial growth incubated for 18 hrs by broth-dilution method; assay type: functional
[9] = tested on: Staphylococcus aureus; experiment: Antimicrobial activity against methicillin-resistant Staphylococcus aureus 6 assessed as inhibition of visible bacterial growth incubated for 18 hrs by broth-dilution method; assay type: functional
[10] = tested on: Staphylococcus aureus; experiment: Antimicrobial activity against methicillin-resistant Staphylococcus aureus ATCC 33591 assessed as inhibition of visible bacterial growth incubated for 18 hrs by broth-dilution method; assay type: functional
[11] = tested on: Staphylococcus aureus; experiment: Antimicrobial activity against methicillin-resistant Staphylococcus aureus 3 assessed as inhibition of visible bacterial growth incubated for 18 hrs by broth-dilution method; assay type: functional
[12] = tested on: Staphylococcus aureus; experiment: Antimicrobial activity against methicillin-resistant Staphylococcus aureus ATCC 33591 in presence of mouse serum; assay type: functional, organism-based
[13] = tested on: Pseudomonas aeruginosa; experiment: Antimicrobial activity against multidrug-resistant Pseudomonas aeruginosa 516 assessed as inhibition of visible bacterial growth incubated for 18 hrs by broth-dilution method; assay type: functional
[14] = tested on: Pseudomonas aeruginosa; experiment: Antimicrobial activity against Pseudomonas aeruginosa ATCC 27853 assessed as inhibition of visible bacterial growth incubated for 18 hrs by broth-dilution method; assay type: functional
[15] = tested on: Pseudomonas aeruginosa; experiment: Antimicrobial activity against multidrug-resistant Pseudomonas aeruginosa 073 assessed as inhibition of visible bacterial growth incubated for 18 hrs by broth-dilution method; assay type: functional
[16] = tested on: Pseudomonas aeruginosa; experiment: Antimicrobial activity against multidrug-resistant Pseudomonas aeruginosa 124 assessed as inhibition of visible bacterial growth incubated for 18 hrs by broth-dilution method; assay type: functional
[17] = tested on: Staphylococcus aureus; experiment: Antimicrobial activity against Staphylococcus aureus ATCC 25923 assessed as fold change in MIC in presence of salt solution; assay type: functional
[18] = tested on: Pseudomonas aeruginosa; experiment: Antimicrobial activity against multidrug-resistant Pseudomonas aeruginosa 119 assessed as inhibition of visible bacterial growth incubated for 18 hrs by broth-dilution method; assay type: functional
[19] = tested on: Pseudomonas aeruginosa; experiment: Antimicrobial activity against Pseudomonas aeruginosa ATCC 27853 in presence of human serum; assay type: functional, organism-based
[20] = tested on: Escherichia coli; experiment: Antimicrobial activity against Escherichia coli ATCC 25922 assessed as inhibition of visible bacterial growth incubated for 18 hrs by broth-dilution method; assay type: functional
[21] = tested on: Bacillus subtilis; experiment: Antimicrobial activity against Bacillus subtilis ATCC 23857 assessed as inhibition of visible bacterial growth incubated for 18 hrs by broth-dilution method; assay type: functional
[22] = tested on: Staphylococcus aureus; experiment: Antimicrobial activity against Staphylococcus aureus ATCC 25923 in presence of mouse serum; assay type: functional, organism-based
[23] = tested on: Acinetobacter baumannii; experiment: Antimicrobial activity against Acinetobacter baumannii ATCC 19606 assessed as inhibition of visible bacterial growth incubated for 18 hrs by broth-dilution method; assay type: functional
[24] = tested on: Pseudomonas aeruginosa; experiment: Antimicrobial activity against multidrug-resistant Pseudomonas aeruginosa 156 assessed as inhibition of visible bacterial growth incubated for 18 hrs by broth-dilution method; assay type: functional
[25] = tested on: Pseudomonas aeruginosa; experiment: Antimicrobial activity against multidrug-resistant Pseudomonas aeruginosa 125 assessed as inhibition of visible bacterial growth incubated for 18 hrs by broth-dilution method; assay type: functional
[26] = tested on: Staphylococcus aureus; experiment: Antimicrobial activity against methicillin-resistant Staphylococcus aureus 2 assessed as inhibition of visible bacterial growth incubated for 18 hrs by broth-dilution method; assay type: functional
[27] = Stability in human serum assessed as half life measured for 5 hrs by RP-HPLC analysis; assay type: ADME, cell-free
[28] = tested on: Staphylococcus aureus; experiment: Antimicrobial activity against methicillin-resistant Staphylococcus aureus ATCC 33591 in presence of human serum; assay type: functional, organism-based
[29] = tested on: Staphylococcus aureus; experiment: Antimicrobial activity against methicillin-resistant Staphylococcus aureus 7 assessed as inhibition of visible bacterial growth incubated for 18 hrs by broth-dilution method; assay type: functional
[30] = tested on: Staphylococcus aureus; experiment: Antimicrobial activity against Staphylococcus aureus ATCC 25923 assessed as inhibition of visible bacterial growth incubated for 18 hrs by broth-dilution method; assay type: functional
[31] = tested on: Staphylococcus aureus; experiment: Antimicrobial activity against methicillin-resistant Staphylococcus aureus 1 assessed as inhibition of visible bacterial growth incubated for 18 hrs by broth-dilution method; assay type: functional
[32] = tested on: Salmonella typhimurium; experiment: Antimicrobial activity against Salmonella typhimurium ATCC 14028 assessed as inhibition of visible bacterial growth incubated for 18 hrs by broth-dilution method; assay type: functional, Salmonella enterica subsp. enterica serovar Typhimurium; settings: Salmonella enterica
[33] = tested on: Staphylococcus aureus; experiment: Antimicrobial activity against methicillin-resistant Staphylococcus aureus 9 assessed as inhibition of visible bacterial growth incubated for 18 hrs by broth-dilution method; assay type: functional
[34] = tested on: Erythrocyte; experiment: Hemolytic activity against mouse Red blood cell incubated for 1 hr; assay type: toxicity, cell-based
[35] = tested on: Staphylococcus aureus; experiment: Antimicrobial activity against Staphylococcus aureus ATCC 25923 assessed as reduction in bacterial growth in presence of Ca2+; assay type: functional
[36] = tested on: Staphylococcus aureus; experiment: Antimicrobial activity against methicillin-resistant Staphylococcus aureus 4 assessed as inhibition of visible bacterial growth incubated for 18 hrs by broth-dilution method; assay type: functional
[37] = tested on: Staphylococcus aureus; experiment: Antimicrobial activity against methicillin-resistant Staphylococcus aureus 8 assessed as inhibition of visible bacterial growth incubated for 18 hrs by broth-dilution method; assay type: functional
[38] = tested on: Pseudomonas aeruginosa; experiment: Antimicrobial activity against multidrug-resistant Pseudomonas aeruginosa 050 assessed as inhibition of visible bacterial growth incubated for 18 hrs by broth-dilution method; assay type: functional
[39] = tested on: Pseudomonas aeruginosa; experiment: Antibacterial activity against antibiotics-resistant Pseudomonas aeruginosa […] assessed as reduction in microbial growth; assay type: functional
[40] = tested on: Staphylococcus aureus; experiment: Antibacterial activity against antibiotics-resistant Staphylococcus aureus ATCC 33591 assessed as reduction in microbial growth; assay type: functional

| Compound | MIC [3] | MIC [4] | MIC [5] | MIC [6] | MIC [10] | MIC [14] | MIC [16] | fold change (FC) [17] | MIC [18] | MIC [20] | MIC [21] | MIC [23] | MIC [24] | MIC [25] | half-life [27] | MIC [30] | MIC [32] | MHC [34] | MIC [35] | MIC [38] | other results |
| --- | --- | --- | --- | --- | --- | --- | --- | --- | --- | --- | --- | --- | --- | --- | --- | --- | --- | --- | --- | --- | --- |
| CC(C)C[C@H](NC(=O)[C@H](CC(C)C)NC(=O)[C@H](CCCCN)NC(=O)[C@H](CCCCN)NC(=O)[C@H](CC(C)C)NC(=O)[C@H](C)NC(=O)[C@H](CCCCN)NC(=O)CN(C[C@@H](N)Cc1ccccc1)S(=O)(=O)c1ccc(C(F)(F)F)cc1)C(N)=O (X1-[X4]KALKKLL-NH2) | 8 µg/mL (≈ 6.61 µM) | 4 µg/mL (≈ 3.3 µM) | 8 µg/mL (≈ 6.61 µM) | 4 µg/mL (≈ 3.3 µM) | 8 µg/mL (≈ 6.61 µM) | 8 µg/mL (≈ 6.61 µM) | 4 µg/mL (≈ 3.3 µM) | 0.25 | 4 µg/mL (≈ 3.3 µM) | 16 µg/mL (≈ 13.2 µM) | 4 µg/mL (≈ 3.3 µM) | 16 µg/mL (≈ 13.2 µM) | 16 µg/mL (≈ 13.2 µM) | 8 µg/mL (≈ 6.61 µM) | 3.93 h | 8 µg/mL (≈ 6.61 µM) | 16 µg/mL (≈ 13.2 µM) | 256 µg/mL | 32 µg/mL | 8 µg/mL (≈ 6.61 µM) | Activity [1]: inactive; Activity [2]: Active; MIC [7]: 8 µg/mL (≈ 6.61 µM); MIC [8]: 8 µg/mL (≈ 6.61 µM); MIC [9]: 8 µg/mL (≈ 6.61 µM); MIC [11]: 8 µg/mL (≈ 6.61 µM); Activity [12]: inactive; MIC [13]: 8 µg/mL (≈ 6.61 µM); MIC [15]: 8 µg/mL (≈ 6.61 µM); Activity [19]: Active; Activity [22]: inactive; MIC [26]: 8 µg/mL (≈ 6.61 µM); Activity [28]: Active; MIC [29]: 8 µg/mL (≈ 6.61 µM); MIC [31]: 4 µg/mL (≈ 3.3 µM); MIC [33]: 8 µg/mL (≈ 6.61 µM); MIC [36]: 8 µg/mL (≈ 6.61 µM); MIC [37]: 8 µg/mL (≈ 6.61 µM) |
| CC(C)C[C@H](N)CN(CC(=O)N[C@@H](CCCCN)C(=O)N[C@@H](CC(C)C)C(=O)N[C@@H](CC(C)C)C(=O)N[C@@H](CCCCN)C(=O)N[C@@H](CCCCN)C(=O)N[C@@H](CC(C)C)C(=O)N[C@@H](CC(C)C)C(N)=O)S(=O)(=O)c1cc(C(F)(F)F)cc(C(F)(F)F)c1 (X7-[X2]KLLKKLL-NH2) | 16 µg/mL (≈ 12.4 µM) | – | – | – | 4 µg/mL (≈ 3.11 µM) | 4 µg/mL (≈ 3.11 µM) | – | 0.25 | – | 8 µg/mL (≈ 6.22 µM) | 16 µg/mL (≈ 12.4 µM) | 16 µg/mL (≈ 12.4 µM) | – | – | 3.33 h | 8 µg/mL (≈ 6.22 µM) | 16 µg/mL (≈ 12.4 µM) | 128 µg/mL | 32 µg/mL | – | – |
| C[C@H]1[C@H](NC(=O)/C(=N\OC(C)(C)C(=O)O)c2csc(N)n2)C(=O)N1S(=O)(=O)O [AZTREONAM] | – | 256 µg/mL (≈ 588 µM) | 8 µg/mL (≈ 18.4 µM) | 8 µg/mL (≈ 18.4 µM) | – | – | 4 µg/mL (≈ 9.19 µM) | – | 8 µg/mL (≈ 18.4 µM) | – | – | – | 256 µg/mL (≈ 588 µM) | 8 µg/mL (≈ 18.4 µM) | – | – | – | – | – | 8 µg/mL (≈ 18.4 µM) | MIC [39]: 32 µg/mL; MIC [40]: 32 µg/mL |
